“And” between values parts separate entries of the source, which are not always exact repeats. Equal values may be shown once.
Experiments:
MT4 [1] = test: Compound was evaluated for its ability to Inhibit HIV replication in MT-4 cells; type: functional, cell-based, Homo sapiens
[2] = Concentration of compound affecting viability of the uninfected cells by 50% when assayed in parallel with antiviral assay in MT-4 cells; type: cell-based, MT4; details: human, uninfected MT-4 cells; read-out: TC50 (the source's name)
MT4 [3] = test: The compound was evaluated for its ability to Inhibit HIV replication in MT-4 cells; type: functional, cell-based; details: Homo sapiens

## Nc1nc(N)c2ncn([C@H]3C=C[C@@H](OCP(=O)(O)O)O3)c2n1
MT4 [1]; Homo sapiens, MT4
  IC50: 82.5 µM
[2]
  CC50: > 100 µM

## Nc1ncnc2c1ncn2[C@H]1C=C[C@@H](OCP(=O)(O)O)O1
MT4 [1]; Homo sapiens, MT4
  IC50: 4.3 µM
[2]
  CC50: > 100 µM

## Nc1ncnc2c1ncn2CCOCP(=O)(O)O [ADEFOVIR]
MT4 [1]; mt4
  IC50: 6.5 µM and 2 µM
[2]
  CC50: 40 µM

## Nc1nc(N)c2ncn(CCOCP(=O)(O)O)c2n1 [PMEDAP]
MT4 [3]
  IC50: 1 µM

— ChEMBL document CHEMBL1152065, “Synthesis and anti-HIV activity of 9-[(2R-5R)-2,5-dihydro-5-(phosphonomethoxy)-2-furanyl]-2,6-diaminopurine” (Bioorg Med Chem Lett, 1992)
